Laboratory results taken from article PMC6628435, “Chemical Synthesis, Proper Folding, Nav Channel Selectivity Profile and Analgesic Properties of the Spider Peptide Phlotoxin 1” (Toxins, 2019).
Bridge positions count the residues as written; N and C are the ends. Peptide text beside a SMILES is read from it.

Key:
[1] = mice; PhlTx1 100 pmoles or morphine 0.25 mg in 10 µL
Nav1.1/β1 = assay: Two-electrode voltage-clamp on Xenopus laevis oocytes expressing Nav1.1/β1; assay type: cell-based; settings: 1 µM; voltage of maximum sodium influx, holding −90 mV; oocytes TEVC; n ≥ 3
Excerpt: (§1) Using the two-electrode voltage-clamp technique on Xenopus laevis oocytes, the effect of PhlTx1 was also compared on eight different cloned vertebrate Nav channels co-expressed with the β1 subunit (Nav1.1-1.8/β1) and on the neuronal insect Nav channel, para, co-expressed with the tipE subunit (Figure 3 and Figure 4). […] Normalized current-voltage relationships (I-V curve) of Nav1.2/β1 and Nav1.3/β1 channels seemed to be shifted towards more negative potentials when PhlTx1 was applied, but shifts were not statistically significant […] (Figure 4). The activation phase of the other studied Nav channel subtypes was not affected. No obvious alteration in channel availability was observed, except a 5-mV negative shift for Nav1.3/β1, although that was also non-significant (p > 0.05).
(§2) Figure 4 1 µM of PhlTx1 was tested on Nav1.1/β1, Nav1.2/β1, Nav1.3/β1, Nav1.4/β1, Nav1.5/β1, Nav1.6/β1, Nav1.8/β1 and para/tipE (n ≥ 3). Left column: current traces were evoked by a 50-ms depolarization to the voltage of maximum sodium influx, depending on the Nav studied, from a holding potential of −90 mV. At 1 µM PhlTx1, all studied Nav channels, except Nav1.4/β1, were blocked for about 10% (no toxin: *). The current of Nav1.4/β1 was reduced for about 35 ± 5%. Middle column: normalized I-V curves reveal no significant shift of the activation voltage (p > 0.05). […]

[2] = system: formalin-induced spontaneous pain behavior; assay: Formalin pain test in mice after intrathecal injection; assay type: in vivo, C57BL/6J mice; settings: intrathecal, 10 µL; PhlTx1 100 pmoles (n = 5), morphine 0.25 mg (n = 6); 10 µL 5% formalin in hindpaw; versus vehicle
para/tipE = assay: Two-electrode voltage-clamp on Xenopus laevis oocytes expressing insect Nav channel para/tipE; assay type: cell-based, Fruit fly; settings: 1 µM; voltage of maximum sodium influx, holding −90 mV; oocytes TEVC; n ≥ 3
Excerpt: as §1, §2

Nav1.3/β1 = assay: Two-electrode voltage-clamp on Xenopus laevis oocytes expressing Nav1.3/β1; assay type: cell-based
Excerpt: as §1, §2

CC(C)C[C@@H]1NC(=O)[C@@H](NC(=O)[C@H](C)N)CSSC[C@@H]2NC(=O)[C@@H]3CSSC[C@@H](C(=O)N[C@@H](CCCNC(=N)N)C(=O)N[C@@H](Cc4ccc(O)cc4)C(=O)N[C@@H](CCCCN)C(=O)N[C@@H](CC(C)C)C(=O)N[C@@H](Cc4ccccc4)C(=O)O)NC(=O)[C@H](Cc4c[nH]c5ccccc45)NC(=O)[C@@H]4CCCN4C(=O)[C@H](Cc4ccc(O)cc4)NC(=O)[C@H](CCCCN)NC(=O)[C@H](Cc4c[nH]c5ccccc45)NC(=O)[C@H](CCC(=O)O)NC(=O)[C@H](CSSC[C@H](NC(=O)[C@H](CO)NC(=O)[C@H](CC(=O)O)NC(=O)[C@H](Cc4c[nH]c5ccccc45)NC(=O)[C@H](CCC(N)=O)NC(=O)CNC1=O)C(=O)N[C@@H](CC(=O)O)C(=O)N1CCC[C@H]1C(=O)N[C@@H](CCCCN)C(=O)N[C@@H](C)C(=O)N[C@@H](CO)C(=O)N[C@@H](CCCCN)C(=O)N3)NC(=O)[C@H](C)NC(=O)[C@H](Cc1ccc(O)cc1)NC(=O)[C@H](CC(N)=O)NC(=O)[C@@H]1CCCN1C2=O [PhlTx1, Phlotoxin-1] (H-ACLGQWDSCDPKASKCCPNYACEWKYPWCRYKLF-OH; disulfide 2-17, 9-22, 16-29; N-terminus and C-terminus assumed)
neurotoxicity after intrathecal injection [1]: no neurotoxicity was observed
block of sodium current (Nav1.1/β1): about 10%
formalin-induced pain behavior (licking), Phase II (inflammation, 10–45 min) [2]: substantially reduced the response
formalin-induced pain behavior, Phase I (acute pain, 0–10 min) [2]: substantially reduced the response
block of sodium current (para/tipE): about 10%
negative shift in channel availability (Nav1.3/β1; 1 µM PhlTx1, non-significant (p > 0.05)): 5 mV
block of sodium current (Nav1.3/β1; 1 µM, voltage of maximum sodium influx, holding −90 mV, oocytes TEVC, n ≥ 3): about 10%
